Results taken from the NIST ThermoML archive (doi:10.1021/je200811n).

Details: Hot wire method

C=C(F)C(F)(F)F [2,3,3,3-tetrafluoro-1-propene]
Details | thermal conductivity [W/m/K]
303.53 K, 5728 kPa, Liquid | 0.06591
303.55 K, 638 kPa, Gas | 0.01428
303.58 K, 863 kPa, Liquid | 0.06214
303.62 K, 95 kPa, Gas | 0.01418
303.69 K, 16013 kPa, Liquid | 0.0724
303.7 K, 10745 kPa, Liquid | 0.06899
303.7 K, 20552 kPa, Liquid | 0.07462
303.71 K, 509 kPa, Gas | 0.0142
303.73 K, 5727 kPa, Liquid | 0.06571
303.76 K, 199 kPa, Gas | 0.01415
303.8 K, 863 kPa, Liquid | 0.06166
303.93 K, 349 kPa, Gas | 0.01413
304.07 K, 95 kPa, Gas | 0.01428
304.07 K, 16014 kPa, Liquid | 0.07249
304.07 K, 20551 kPa, Liquid | 0.07457
304.1 K, 10744 kPa, Liquid | 0.06936
304.15 K, 5727 kPa, Liquid | 0.06587
304.2 K, 199 kPa, Gas | 0.0142
304.24 K, 861 kPa, Liquid | 0.06192
304.28 K, 20546 kPa, Liquid | 0.07468
304.3 K, 16011 kPa, Liquid | 0.07229
304.33 K, 10741 kPa, Liquid | 0.069
304.39 K, 5724 kPa, Liquid | 0.06553
304.5 K, 861 kPa, Liquid | 0.06141
304.55 K, 95 kPa, Gas | 0.01429
311.19 K, 200 kPa, Gas | 0.01522
311.21 K, 97 kPa, Gas | 0.01495
311.39 K, 298 kPa, Gas | 0.01522
311.41 K, 200 kPa, Gas | 0.01508
311.44 K, 97 kPa, Gas | 0.01475
311.61 K, 298 kPa, Gas | 0.01516
311.64 K, 200 kPa, Gas | 0.01494
311.67 K, 98 kPa, Gas | 0.01469
311.84 K, 298 kPa, Gas | 0.01507
311.87 K, 877 kPa, Gas | 0.01518
311.89 K, 200 kPa, Gas | 0.01484
311.92 K, 97 kPa, Gas | 0.01463
311.99 K, 676 kPa, Gas | 0.01501
312.01 K, 610 kPa, Gas | 0.01499
312.09 K, 298 kPa, Gas | 0.01504
312.14 K, 200 kPa, Gas | 0.01477
312.15 K, 876 kPa, Gas | 0.01537
312.16 K, 409 kPa, Gas | 0.0149
312.18 K, 97 kPa, Gas | 0.01458
312.25 K, 298 kPa, Gas | 0.01491
312.3 K, 675 kPa, Gas | 0.01513
312.31 K, 610 kPa, Gas | 0.01511
312.36 K, 200 kPa, Gas | 0.01491
312.46 K, 875 kPa, Gas | 0.01532
312.49 K, 408 kPa, Gas | 0.01491
312.57 K, 97 kPa, Gas | 0.01511
312.58 K, 298 kPa, Gas | 0.01491
312.62 K, 673 kPa, Gas | 0.01513
312.66 K, 608 kPa, Gas | 0.01506
312.72 K, 200 kPa, Gas | 0.01494
312.8 K, 873 kPa, Gas | 0.01537
312.85 K, 408 kPa, Gas | 0.01492
312.96 K, 298 kPa, Gas | 0.01498
312.97 K, 97 kPa, Gas | 0.01513
312.97 K, 673 kPa, Gas | 0.01511
313.01 K, 607 kPa, Gas | 0.01512
313.11 K, 200 kPa, Gas | 0.01497
313.15 K, 872 kPa, Gas | 0.01537
313.23 K, 408 kPa, Gas | 0.01499
313.34 K, 672 kPa, Gas | 0.01515
313.36 K, 298 kPa, Gas | 0.01497
313.38 K, 608 kPa, Gas | 0.01508
313.39 K, 98 kPa, Gas | 0.01515
313.53 K, 200 kPa, Gas | 0.015
313.62 K, 409 kPa, Gas | 0.01501
313.78 K, 298 kPa, Gas | 0.01501
313.83 K, 97 kPa, Gas | 0.01516
313.96 K, 201 kPa, Gas | 0.01503
314.3 K, 97 kPa, Gas | 0.01518
321.31 K, 103 kPa, Gas | 0.01573
321.31 K, 200 kPa, Gas | 0.01591
321.31 K, 302 kPa, Gas | 0.01608
321.46 K, 1449 kPa, Liquid | 0.05663
321.54 K, 103 kPa, Gas | 0.01562
321.54 K, 200 kPa, Gas | 0.01577
321.54 K, 302 kPa, Gas | 0.01588
321.56 K, 1449 kPa, Liquid | 0.05669
321.75 K, 1115 kPa, Gas | 0.0164
321.76 K, 302 kPa, Gas | 0.01587
321.78 K, 103 kPa, Gas | 0.01553
321.79 K, 200 kPa, Gas | 0.01566
321.82 K, 1447 kPa, Liquid | 0.05704
321.95 K, 1449 kPa, Liquid | 0.05672
321.97 K, 6367 kPa, Liquid | 0.06142
322.01 K, 302 kPa, Gas | 0.01579
322.01 K, 11135 kPa, Liquid | 0.06547
322.03 K, 200 kPa, Gas | 0.0156
322.04 K, 103 kPa, Gas | 0.01545
322.04 K, 1115 kPa, Gas | 0.01641
322.11 K, 1199 kPa, Gas | 0.01674
322.14 K, 959 kPa, Gas | 0.01623
322.15 K, 16399 kPa, Liquid | 0.06904
322.18 K, 862 kPa, Gas | 0.0161
322.22 K, 1450 kPa, Liquid | 0.05677
322.22 K, 6361 kPa, Liquid | 0.06113
322.24 K, 721 kPa, Gas | 0.01595
322.25 K, 302 kPa, Gas | 0.01579
322.25 K, 21278 kPa, Liquid | 0.07192
322.26 K, 11135 kPa, Liquid | 0.06468
322.26 K, 16399 kPa, Liquid | 0.06856
322.28 K, 617 kPa, Gas | 0.01584
322.29 K, 200 kPa, Gas | 0.01556
322.33 K, 103 kPa, Gas | 0.01529
322.35 K, 1115 kPa, Gas | 0.01644
322.36 K, 21276 kPa, Liquid | 0.07119
322.37 K, 1451 kPa, Liquid | 0.05654
322.37 K, 6358 kPa, Liquid | 0.06119
322.38 K, 454 kPa, Gas | 0.01579
322.39 K, 1199 kPa, Gas | 0.01671
322.39 K, 11134 kPa, Liquid | 0.06479
322.45 K, 958 kPa, Gas | 0.01621
322.5 K, 861 kPa, Gas | 0.01614
322.51 K, 302 kPa, Gas | 0.01582
322.56 K, 720 kPa, Gas | 0.01597
322.6 K, 16396 kPa, Liquid | 0.06784
322.62 K, 617 kPa, Gas | 0.01591
322.63 K, 6353 kPa, Liquid | 0.06144
322.64 K, 201 kPa, Gas | 0.01586
322.65 K, 1450 kPa, Liquid | 0.05654
322.66 K, 11130 kPa, Liquid | 0.06486
322.67 K, 1114 kPa, Gas | 0.01646
322.69 K, 1199 kPa, Gas | 0.01673
322.71 K, 21274 kPa, Liquid | 0.0708
322.73 K, 453 kPa, Gas | 0.01585
322.76 K, 958 kPa, Gas | 0.01622
322.76 K, 16394 kPa, Liquid | 0.06823
322.8 K, 6353 kPa, Liquid | 0.06127
322.81 K, 103 kPa, Gas | 0.01605
322.81 K, 11128 kPa, Liquid | 0.06487
322.82 K, 860 kPa, Gas | 0.01612
322.84 K, 1450 kPa, Liquid | 0.05629
322.84 K, 21270 kPa, Liquid | 0.07095
322.88 K, 302 kPa, Gas | 0.01585
322.91 K, 720 kPa, Gas | 0.01599
322.98 K, 616 kPa, Gas | 0.01592
323 K, 200 kPa, Gas | 0.01592
323 K, 1199 kPa, Gas | 0.01678
323.01 K, 1114 kPa, Gas | 0.01647
323.08 K, 11126 kPa, Liquid | 0.06485
323.09 K, 6351 kPa, Liquid | 0.06135
323.1 K, 453 kPa, Gas | 0.0159
323.11 K, 957 kPa, Gas | 0.01622
323.13 K, 1448 kPa, Liquid | 0.05646
323.15 K, 16396 kPa, Liquid | 0.06821
323.18 K, 859 kPa, Gas | 0.01617
323.22 K, 103 kPa, Gas | 0.01607
323.23 K, 21266 kPa, Liquid | 0.07101
323.26 K, 11126 kPa, Liquid | 0.06472
323.27 K, 719 kPa, Gas | 0.016
323.28 K, 302 kPa, Gas | 0.0159
323.28 K, 6351 kPa, Liquid | 0.06102
323.33 K, 1199 kPa, Gas | 0.01671
323.34 K, 614 kPa, Gas | 0.01597
323.34 K, 1447 kPa, Liquid | 0.05607
323.34 K, 16393 kPa, Liquid | 0.06817
323.4 K, 200 kPa, Gas | 0.01592
323.4 K, 21264 kPa, Liquid | 0.07095
323.46 K, 956 kPa, Gas | 0.01625
323.49 K, 453 kPa, Gas | 0.01593
323.55 K, 858 kPa, Gas | 0.01618
323.65 K, 103 kPa, Gas | 0.01611
323.66 K, 718 kPa, Gas | 0.01605
323.69 K, 302 kPa, Gas | 0.01592
323.73 K, 612 kPa, Gas | 0.01601
323.75 K, 16392 kPa, Liquid | 0.06817
323.8 K, 21262 kPa, Liquid | 0.07093
323.83 K, 200 kPa, Gas | 0.01593
323.91 K, 453 kPa, Gas | 0.01589
323.97 K, 16390 kPa, Liquid | 0.068
324 K, 21259 kPa, Liquid | 0.07084
324.11 K, 302 kPa, Gas | 0.01598
324.12 K, 103 kPa, Gas | 0.01612
324.29 K, 200 kPa, Gas | 0.01599
324.62 K, 103 kPa, Gas | 0.01618
331.07 K, 101 kPa, Gas | 0.01664
331.09 K, 202 kPa, Gas | 0.01678
331.12 K, 299 kPa, Gas | 0.01699
331.29 K, 101 kPa, Gas | 0.0165
331.3 K, 202 kPa, Gas | 0.0167
331.34 K, 299 kPa, Gas | 0.01685
331.53 K, 101 kPa, Gas | 0.01639
331.54 K, 202 kPa, Gas | 0.01658
331.56 K, 300 kPa, Gas | 0.01677
331.78 K, 102 kPa, Gas | 0.01632
331.78 K, 202 kPa, Gas | 0.0165
331.8 K, 300 kPa, Gas | 0.0167
331.8 K, 1511 kPa, Gas | 0.01797
331.86 K, 1389 kPa, Gas | 0.0177
331.9 K, 1236 kPa, Gas | 0.01732
331.98 K, 1075 kPa, Gas | 0.01717
332 K, 975 kPa, Gas | 0.01697
332.04 K, 102 kPa, Gas | 0.01627
332.04 K, 202 kPa, Gas | 0.01642

Liquid
Details | thermal conductivity [W/m/K]
313.15 K | 0.05899
323.15 K | 0.05606
